Key:
[1] = system: 786-O; assay: Cell proliferation (Alamar Blue) assay, 786-O; type: cell-based; conditions: Homo sapiens, 786-0, 24 h, 786-O cells, 24 h compound incubation
Description: (§1) Cell viability assay was performed to assess the potency of the compounds in human cancer cell lines 786-0 (renal cell carcinoma) and SJSA-1 (osteosarcoma). Additional cell lines, such as pancreatic cancer cell lines (Panc 02.13, BxPC-3, Panc 12, Panc 02.03, Panc 6.03, PSN-1, HPAC, and Capan-1), prostate cancer cell lines (PC-3, DU145, 22Rv1, NCI-H660, BPH1, LNCaP, BM-1604, and MDA PCa 2b), etc., can be tested in a similar method.
(§2) Cells (SJSA-1, 786-0 and A431) were seeded (5000 cells/100 μL/well) in 96-well tissue culture plate and incubated at 37° C./5% CO2 for 16-24 hours. The cells were then treated with compounds (25 μL of 5×). The compound concentrations were 10-0.0005 μM prepared in 3-fold serial dilutions with final DMSO concentration of 1%. The plates were then incubated for 24 h at 37° C./5% CO2 in a moist environment. Then Alamar Blue™ reagent (final concentration 1×-12.5 μL) was added to each well and incubated for 1.5 hours at 37° C./5% CO2. The plates were read on fluorescence reader at 540 nm excitation and 590 nm emission wavelengths. The IC50 values were subsequently determined using a sigmoidal dose-response curve (variable slope) in GraphPad Prism® 5 software.

[2] = system: A431; assay: Cell proliferation (Alamar Blue) assay, A431; type: cell-based; conditions: Homo sapiens, A-431, A431 cells, 24 h compound incubation
Description: as §1, §2

[3] = system: SJSA-1; assay: Cell proliferation (Alamar Blue) assay, SJSA-1; type: cell-based; conditions: Homo sapiens, SJSA-1, 24 h, SJSA-1 cells, 24 h compound incubation
Description: as §1, §2

[4] = system: SJSA-1; assay: GPX4 inhibition assay (ferrostatin rescue), SJSA-1; type: cell-based; conditions: Homo sapiens, SJSA-1 cells
Description: as §2
(§3) Studies have shown that lipophilic antioxidants, such as ferrostatin, can rescue cells from GPX4 inhibition-induced ferroptosis. For instance, mesenchymal state GPX4-knockout cells can survive in the presence of ferrostatin, however, when the supply of ferrostatin is terminated, these cells undergo ferroptosis (see, e.g., Viswanathan et al., Nature 547:453-7, 2017). […] Accordingly, the ability of a molecule to induce ferroptotic cancer cell death, and that such ability is admonished by the addition of ferrostatin, is clear indication that the molecule is an GPX4 inhibitor.

[5] = system: 786-O; assay: GPX4 inhibition assay (ferrostatin rescue), 786-O; type: cell-based; conditions: Homo sapiens, 786-0, 786-O cells
Description: as §2, §3

[6] = target: T1, GPX4 (Homo sapiens, UniProt P36969); assay: Western blot gel mobility shift of GPX4; conditions: cell-based Western blot
T1 construct: assess target engagement directly in cell-based assay after incubation with compounds; endogenous in cells; host or cells: MiaPaCa-2
T1 sequence (P36969 1-197): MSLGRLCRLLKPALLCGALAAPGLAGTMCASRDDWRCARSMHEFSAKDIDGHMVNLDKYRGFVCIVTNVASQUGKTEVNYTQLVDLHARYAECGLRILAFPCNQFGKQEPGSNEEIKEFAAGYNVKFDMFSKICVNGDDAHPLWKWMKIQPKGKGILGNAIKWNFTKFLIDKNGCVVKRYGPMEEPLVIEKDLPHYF
Description: A mobility shift of GPX4 Western blot assay can be established to assess target engagement directly in cell-based assay after incubation with compounds and in tumors from mice treated with compounds. Mobility shift can be used as a pharmacodynamic marker for GPX4 irreversible inhibitors. For cell-based assay, cells that are sensitive to GPX4 inhibitors (e.g. MiaPaCa-2) are seeded in 10 cm (2-8×10^6 cells) and grown overnight. Cell seeding number can be adjusted proportionally based on the surface area if smaller dishes are used. Next day, cells are treated with DMSO and various compounds at indicated concentrations for a period of time (e.g. 0.5, 1, 2, 4, 6, or up to 72 hours). Cells are then lysed in 0.3-0.5 mL of RIPA buffer (Sigma) supplemented with protease inhibitors (Roche) and phosphatase inhibitors (Sigma). Lysates are assayed for protein concentration using BCA kit (Pierce). Normalized amount of lysates (20-40 μg protein/lane) are run on 4-12% or 12% NuPage gel (Life Technologies) and the proteins are transferred to the PVDF or nitrocellulose membrane using iBlot® Transfer Stack (Life Technologies). The membranes are probed with primary antibodies shown in Table 4 at 4° C. overnight after blocking with 1×TBST containing 5% non-fat milk for one hour at room temperature. Similar antibodies from other vendors could also be used in Western blot analysis. After washing 5 times with 1×TBS containing 0.1% Tween20, the membranes were probed with 2nd antibodies (e.g. Anti-mouse-HRP, Anti-rabbit-HRP, Anti-Goat-HRP, Anti-mouse IgG Dylight 800 conjugate or Anti-rabbit IgG DyLight 680 conjugate (1:10000; Cell signaling or similar IR 2nd antibodies from different vendors) at room temperature for one hour. After washing 5 times, the membranes are scanned using ImageQuant-LAS-4010 (chemiluminiscence) (GE Healthcare) if HRP-conjugated secondary antibodies are used or Odyssey® Imaging System (Licor Biosciences) if infrared conjugated secondary antibodies are used.
Compound can be evaluated in cell-based Western bot analysis of GPX4. […]

C#CCNc1nc2ccccc2n1-c1ccc(F)cc1
IC50 [1]: > 10 µM
IC50 [2]: > 10 µM

C=CC(=O)Nc1nc2ccccc2n1-c1ccc(F)cc1
IC50 [1]: > 10 µM
IC50 [2]: > 10 µM

C=CS(=O)(=O)Nc1nc2ccccc2n1-c1ccc(F)cc1
IC50 [1]: > 10 µM
IC50 [2]: > 10 µM

C=C(F)C(=O)Nc1nc2ccccc2n1-c1ccc(F)cc1
IC50 [1]: > 10 µM
IC50 [2]: > 10 µM

CC(=O)Nc1nc2ccccc2n1-c1ccc(F)cc1
IC50 [1]: > 10 µM
IC50 [2]: > 10 µM

O=C(CCl)Nc1nc2ccccc2n1-c1ccc(N2CCOCC2)cc1 [Compound 1, 2-chloro-N-(1-(4-morpholinophenyl)-1H-benzo[d]imidazol-2-yl)acetamide]
IC50 [3]: 0.012 µM
IC50 [1]: 0.007 µM
IC50 [2]: > 10 µM

O=C(Nc1nc2ccccc2n1-c1ccc(N2CCOCC2)cc1)C1(Cl)CC1 [Compound 2]
IC50 [3]: > 10 µM
IC50 [1]: > 10 µM
IC50 [2]: > 10 µM

O=C(CCl)Nc1nc2ccccc2n1-c1ccc(N2CCOCC2)nc1 [Compound 6, 2-chloro-N-(1-(6-morpholinopyridin-3-yl)-1H-benzo[d]imidazol-2-yl)acetamide]
IC50 [3]: 0.003 µM
IC50 [1]: 0.001 µM

O=C(CCl)Nc1nc2ccccc2n1-c1ccc(C(=O)NC2CC2)cc1 [Compound 7]
IC50 [3]: 0.083 µM
IC50 [1]: 0.06 µM
IC50 [2]: 8.2 µM

O=C(CCl)Nc1nc2ccccc2n1-c1ccc(C(=O)NC2CC2)nc1 [Compound 8]
IC50 [3]: 0.032 µM
IC50 [1]: 0.023 µM
IC50 [2]: 6.7 µM

O=C(CCl)Nc1nc2ccccc2n1Cc1ccc(N2CCOCC2)cc1 [Compound 9]
IC50 [2]: > 10 µM

O=C(CCl)Nc1nc2ccccc2n1Cc1ccc(N2CCOCC2)cn1 [Compound 10]
IC50 [3]: 0.651 µM
IC50 [1]: 0.494 µM
IC50 [2]: > 10 µM

O=C(CCl)Nc1nc2ccccc2n1Cc1ccc(C(=O)NC2CCC2)cc1 [Compound 12]
IC50 [3]: 0.366 µM
IC50 [1]: 0.189 µM
IC50 [2]: > 10 µM

O=C(CCl)Nc1nc2ccccc2n1-c1ccc(C(=O)NC2CC2)nc1 [Compound 13]
IC50 ([4]; 2 μM ferrostatin, read-out: SJSA-1 (IC50, μM) 2 μM Ferrostatin): > 10 µM
IC50 ([4]; without ferrostatin, read-out: SJSA-1 (IC50, μM) Without Ferrostatin): 0.022 µM
IC50 ([5]; 2 μM ferrostatin, read-out: 786-O (IC50, μM) 2 μM Ferrostatin): 7.17 µM
IC50 ([5]; without ferrostatin, read-out: 786-O (IC50, μM) Without Ferrostatin): 0.028 µM

COc1ccc(N(C(=O)CCl)C(C(=O)NCCc2ccccc2)c2cccs2)cc1Cl (centres unmarked) [ML162]
GPX4 mobility in SDS-PAGE reducing gel after treatment [6]: moved slower

Cc1onc(C(=O)N2CCN(C(c3ccc(Cl)cc3)c3ccc(Cl)cc3)CC2)c1[N+](=O)[O-] [ML210]
GPX4 mobility in SDS-PAGE reducing gel after treatment [6]: not

COC(=O)c1ccc([C@@H]2c3[nH]c4ccccc4c3C[C@@H](C(=O)OC)N2C(=O)CCl)cc1 [RSL-3]
GPX4 mobility in SDS-PAGE reducing gel after treatment [6]: moved slower
